According to patent publication US20080226596A1, “Therapeutic compositions and methods useful in treating hepatitis” (priority 2006, published 2008):
“Also recorded” adds a separate entry of the source.

How the values were obtained:
[1] = test system: GSTm8; assay: In vitro PTPase assay, GSTm8; type: biochemical; details: 3-4 μg/ml or 10-100 μg/ml
Source text: In vitro PTPase assays were used to determine the effects of levamisole (Sigma), pentamidine (American Pharmaceutical Partners, Inc.), and ketoconazole (Sigma) on recombinant PTPases, following established procedures (Pathak et al., J. Imumol. 167, 3391 (2001); Pathak et al., Leukemia 16, 2285 (2002), Yi et al., J. Immunol. 169, 5978 (2002)) using a synthetic phosphotyrosine peptide or DiFMUP as the substrate as detailed above in section I.A.2.

[2] = target: T1, PRL-2 (Homo sapiens, UniProt Q12974); assay: In vitro PTPase assay, recombinant PRL-2; type: biochemical
T1 construct: GST (N); made in house; host or cells: DHSa (DH5a) bacteria
T1 sequence (Q12974 whole entry): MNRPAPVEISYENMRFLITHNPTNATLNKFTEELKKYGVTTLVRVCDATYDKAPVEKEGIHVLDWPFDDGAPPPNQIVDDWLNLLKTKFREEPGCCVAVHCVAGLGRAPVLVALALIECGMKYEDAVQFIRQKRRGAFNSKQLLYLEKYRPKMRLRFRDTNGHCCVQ
Source text: Sodium stibogluconate, suramin, sodium orthovanadate and GST fusion protein of SHP-1 have been described previously (Pathak et al., J. Imumol. 167, 3391 (2001)). Meglumine antimonate was obtained from Aventis. cDNAs of human PRL-1, PRL-2 and PRL-3 coding region were derived by RT-PCR from H9 cells (Safai, et al., Lancet 1, 1438 (1984)) and inserted in frame into the pGEX vector. cDNA of PRL-1R86 was generated by recombinant DNA technique using PRL-1 cDNA as template following established procedures (Jiao, et al., Mol. Cell. Biol. 16, 6985 (1996)). […]
In vitro PTPase assays were used to determine the effects of compounds on recombinant PTPases, following established procedures using a synthetic phosphotyrosine peptide or DiFMUP as the substrate (Pathak et al., J. Imumol. 167, 3391 (2001)). […] PTPase activity of individual reactions was measured by adding 100 µL of malachite green solution (UBI) and then quantifying the amounts of free phosphate cleaved by the PTPase from the peptide substrate by spectrometry (OD660 nm). […] Relative PTPase activities were calculated based on the formula: (PTPase activity in the presence of an inhibitory compound/PTPase activity in the absence of the compound)× 100%. […]

[3] = test system: LoVo cells; assay: LoVo colon cancer cell growth, MTT assay; type: cell-based, human; details: 100 μg/ml, day 6
Protocol: NIH3T3 (Yi, et al., Blood 85, 87 (1995)), WM9 (Forsberg, et al., Proc. Nat. Acad Sci. USA 90, 393 (1993)), DU145 (Mickey, et al., Cancer Res. 37, 4049 (1977)), LoVo (Drewinko, et al., Cancer Res. 36, 467 (1976)), HEY (Buick, et al., Cancer Res. 45, 3668 (1985)), U251 (Yoshida, et al., Cancer 50, 410 (1982)), A549 (Giard, et al., J. Natl. Cancer Inst. 51, 1417 (1973)) and SK-N-SH (Helson, et al., Cancer Res. 35, 2594 (1975)) cell lines have been described and were cultured in RPMI 1640 supplemented with 10% fetal calf serum (FCS). For measurement of sodium stibogluconate effects on cell growth in vitro, cells were cultured in the absence (−) or presence (+) of various amounts of sodium stibogluconate for 6 days with viable cells quantified by MTT assays (Mosmann, J. Immunol. Methods 65, 55 (1983)). Percentages of growth inhibition by sodium stibogluconate were calculated (.+−.x

[4] = test system: human peripheral blood; assay: ELISPOT of cytokine-positive cells in human peripheral blood treated in vitro; type: cell-based; details: comparable conditions
[5] = test system: MDA231 cells; assay: MDA231 breast cancer cell growth, MTT assay; type: cell-based, human; details: single agent, 50-100 μg/ml, day 6
Protocol: For cell proliferation assays, cells were grown in 10% FCS culture medium containing various amounts of IFNs and/or sodium stibogluconate in 96 well plates and cultured at 37° C. for 3 or 6 days as indicated. The numbers of viable cells in proliferation assays were determined by MTT assays as described in Phatak et al., J. Immunol. 167, 3391 (2001).

[6] = test system: Jurkat cells; assay: IFN-gamma secretion by Jurkat cells, ELISA; type: cell-based, human; details: 16 hrs
Protocol: Jurkat cells were cultured in the absence or presence of various amounts of SSG for 16 hours. The cells and culture medium supernatants were separated by centrifugation (1,000 g, 10 min). The amounts of IFN-gamma in the culture medium supernatants were quantified using an ELISA kit (R.D. system, Minneapolis, Minn.) following the manufacturer's protocol.

CC(=O)N1CCN(c2ccc(OCC3COC(Cn4ccnc4)(c4ccc(Cl)cc4Cl)O3)cc2)CC1 (centres unmarked) [ketoconazole]
inhibitory activity against GSTm8 [1]: no obvious inhibitory activity
effect against PRL-2 [2]: not effective

N=C(N)c1ccc(OCCCCCOc2ccc(C(=N)N)cc2)cc1 [pentamidine]
inhibitory activity against GSTm8 [1]: no obvious inhibitory activity
effect against PRL-2 [2]: not effective

O.O.O.O.O.O.O.O.O.O=C([O-])[C@@H]1[O][Sb]2([O-])([O][Sb]34([OH])[O][C@H]([C@H](O)CO)[C@H]([O]3)[C@H](C(=O)[O-])[O]4)[O][C@H]([C@H](O)CO)[C@@H]1[O]2.[Na+].[Na+].[Na+] [sodium stibogluconate]
killing of LoVo cells [3]: near-complete cell killing
induction of IL-5+ cells [4]: not induced
killing of MDA231 cells [5]: killed all cells; also recorded: complete or near complete killing
IFN-gamma secretion by Jurkat T cells [6]: increased amounts of IFN-gamma
